{"source": "patent US20040223977A1", "about": "“Fusion peptide HIV vaccines” (City of Hope, priority 2003, published 2004)", "key": {"[1]": {"test_system": "IV9 peptide-loaded T2 cells"}, "[2]": {"test_system": "naïve HLA A2/K^b splenocytes", "experiment": "Lymphocyte proliferation assay (3H-thymidine incorporation)", "type": "cell-based, transgenic HLA A2/K^b mice", "conditions": "48 hours culture, up to 1.6 μM ODN", "method": "A naïve transgenic A2/K^b spleen cell suspension was prepared as described for immunized splenocytes in Example 4. Following the removal of erythrocytes using red cell lysis buffer (0.15 M NH4Cl, 1 mM KHCO3, 0.1 mM Na2EDTA in distilled H2O) and subsequent washing, the concentration was adjusted to 4×10^6 cells/ml in complete in vitro stimulation (IVS) medium. One hundred microliters of splenocyte suspension was plated onto 96 well U-bottomed plate along with 100 μl of serially diluted CpG DNA in serum-free IVS medium. Concanavalin A (Sigma, St. Louis, Mo.) at a concentration of 5 μg/ml and unstimulated splenocytes were used as positive and negative controls respectively. […] Levels of TdR uptake were determined by liquid scintillation using a TriLux counter (Wallac, […]). Results were expressed as a stimulation index (SI) compared to unstimulated splenocytes.\nIn vitro analysis of the proliferative effect of two synthetic ODNs was conducted using naïve HLA A2/K^b splenocytes. […] Proliferative responses were determined by ^3H-thymidine incorporation using naïve transgenic A2/K^b splenocytes cultured with immunostimulatory ODN 1826 (SEQ ID NO:5; black bar) or control ODN sequence 1984 (SEQ ID NO:6; white bar) for 48 hours. […]"}, "[3]": {"test_system": "T2 target cells pulsed with SEQ ID NO:10", "experiment": "Chromium release assay after immunization with SEQ ID NO:11, T2 targets pulsed with SEQ ID NO:10", "type": "in vivo, HLA A2.1/Kb transgenic mice"}}, "note": "Square brackets hold non-standard residues; d marks the D form. Peptide text beside a SMILES is read from it. Cha = N[C@@H](CC1CCCCC1)C(=O)O", "data": [{"compound": "CC[C@H](C)[C@H](NC(=O)[C@H](C)NC(=O)[C@H](C)NC(=O)[C@H](C)NC(=O)[C@H](CCCCN)NC(=O)[C@H](CC(C)C)NC(=O)[C@@H](NC(=O)[C@H](Cc1c[nH]c2ccccc12)NC(=O)[C@H](C)NC(=O)[C@H](C)NC(=O)[C@@H](NC(=O)[C@H](CC1CCCCC1)NC(=O)[C@H](CCCCN)NC(=O)[C@H](C)N)C(C)C)[C@@H](C)O)C(=O)N[C@@H](CC(C)C)C(=O)N[C@@H](CCCCN)C(=O)N[C@@H](CCC(=O)O)C(=O)N1CCC[C@H]1C(=O)N[C@H](C(=O)N[C@@H](Cc1c[nH]cn1)C(=O)NCC(=O)N[C@H](C(=O)O)C(C)C)C(C)C", "note": "[PADRE-IV9, AKXVAAWTLKAAAILKEPVHGV] (H-AK[Cha]VAAWTLKAAAILKEPVHGV-OH)", "values": [{"measurement": "cytotoxicity", "setting": "[1]; between 10-15 nmoles of peptide, E:T ratio of 25", "value": "approximately 15%"}]}, {"compound": "5′ TCCAGGACTTCTCTCAGGTT 3′ (chemistry not given here) [ODN 1984]", "values": [{"measurement": "proliferative response (stimulation index)", "setting": "[2]", "value": "little or no proliferation"}]}, {"compound": "5′ TCCATGACGTTCCTGACGTT 3′ [ODN 1826]", "values": [{"measurement": "amount of CpG DNA per dose capable of augmenting the CTL response", "setting": "[1]; co-administered with fusion peptide (50 nmoles PADRE-IV9 elsewhere in the source), s.c., saline", "value": "≤ 1", "unit": "µg"}, {"measurement": "plateau of CTL response", "setting": "[1]; with 50 nmoles PADRE-IV9, E:T of 6, up to 25 μg CpG DNA", "value": "no clear plateau"}, {"measurement": "proliferative response (stimulation index)", "setting": "[2]", "value": "potent generalized proliferative response"}]}, {"compound": "KSSAKXVAAWTLKAAASLYNTVATL [SEQ ID NO:11, PADRE-Gag77-85 fusion peptide]", "values": [{"measurement": "specific recognition (non-specific recognition subtracted)", "setting": "[3]; 25 nmoles with 25 μg ODN 1826 s.c., E:T 4", "value": 41, "unit": "%"}, {"measurement": "specific recognition (non-specific recognition subtracted)", "setting": "[3]; 25 nmoles with 25 μg ODN 1826 s.c., E:T 20", "value": 62, "unit": "%"}, {"measurement": "specific recognition (non-specific recognition subtracted)", "setting": "[3]; 25 nmoles with 25 μg ODN 1826 s.c., E:T 100", "value": 49, "unit": "%"}, {"measurement": "specific recognition (non-specific recognition subtracted)", "setting": "[3]; 50 nmoles with 25 μg ODN 1826 s.c., E:T 4", "value": 9.3, "unit": "%"}, {"measurement": "specific recognition (non-specific recognition subtracted)", "setting": "[3]; 50 nmoles with 25 μg ODN 1826 s.c., E:T 20", "value": 30, "unit": "%"}, {"measurement": "specific recognition (non-specific recognition subtracted)", "setting": "[3]; 50 nmoles with 25 μg ODN 1826 s.c., E:T 100", "value": 33, "unit": "%"}]}]}
